The values that follow come from the METLIN SMRT retention time set (Domingo-Almenara et al. 2019).

This data set can be described thus: gradient 5% acetonitrile 3 min, to 50% in 2 min, to 85% in 15 min, held 3 min, 100 µL/min. Particulars: column: Zorbax Extend-C18 2.1 x 50 mm; eluents: water / acetonitrile, 0.1% formic acid. In a few lines: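 Each retention time is based on an adduct peak selected computationally and verified by manual inspection. Measurements used HPLC–quadrupole time-of-flight mass spectrometry in positive and negative ionization mode on mixtures of ~100 pure standards. Chromatography ran on a Zorbax Extend-C18 column (2.1 × 50 mm, 1.8 μm) at 100 μL/min with water and acetonitrile, each containing 0.1% formic acid, and dead and dwell volumes of 40 μL and 900 μL.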
`O=C(C1CCN(c2nc(-c3ccc(Cl)cc3)no2)CC1)N1CCOCC1` gave an RP-LC retention time of 874 s.
`CCOc1ccc(CNC(=O)C2CCN(S(=O)(=O)c3cn(C)cn3)CC2)cc1`: the RP-LC retention time amounted to 692 s.
`CCn1c(=O)n(-c2ccc(F)cc2)c2nc(-c3ccc(F)cc3F)nc(C(N)=O)c21` had an RP-LC retention time of 1000 s.
As for `CN1CCN(CCNC(=O)c2ccc3c(c2)nnn3Cc2ccc(F)cc2)CC1`, the RP-LC retention time stood at 591 s.
Compound `CCCc1cc(N2CCN(C(=O)c3sccc3C)CC2)nc2nnc(C)n12` came in with an RP-LC retention time of 566 s.
Turning to `COc1ccccc1C1(CNC(=O)C(=O)NCCC2=CCCCC2)CCOCC1`, the RP-LC retention time was 998 s.
To `O=C(c1cc(-c2ccncc2)n[nH]1)N1CCCC(C(=O)N2CCN(c3ccc(Cl)cc3)CC2)C1` (stereo unspecified) belongs 661 s; to `CCCCNC(=O)c1sc(Nc2cccc(C)n2)nc1C`, 777 s.
Compound `CCN1C(=O)Cc2cc(C(=O)N3CCN(c4ccccc4F)CC3)ccc21` gave an RP-LC retention time of 848 s.
To `COCCN1C(=O)[C@H]2CN(Cc3ccc(F)cc3)C[C@H]2C1=O` belongs 585 s; to `Cc1ccc(-n2ccc(=O)c(-c3nc(-c4cccc(Cl)c4)no3)n2)cc1`, 1030 s; to `CSc1nc2ccc3nc(NC(=O)c4ccc([N+](=O)[O-])o4)sc3c2s1`, 930 s.
The compound `CCC1(C(=O)NCc2ccc(C(C)C)cc2)CCCCC(=O)N1` (stereo unspecified) displayed an RP-LC retention time of 814 s.
To `O=C(O)c1cccc(Nc2c(-c3ccc(Cl)cc3)nc3cnccn23)c1` belongs 757 s; to `O=C(C1CC1)N1CCc2sc(S(=O)(=O)NCc3cccs3)cc2C1`, 794 s.
With `CSc1cccc(NC(=O)NC2CCN(c3cc(C)cc(C)c3)C2=O)c1` (stereo unspecified), the RP-LC retention time turned out to be 929 s.
As for `Cc1noc(-c2nc(-c3ccc(N(C)C)cc3)no2)n1`, the RP-LC retention time was 1030 s.
`CCn1c(=O)oc2cc(-c3noc(-c4ccc(C)cc4)n3)ccc21` gave an RP-LC retention time of 1060 s.
The compound `Cc1nc2nc(-c3ccccc3)nn2c(C)c1CC(=O)N1CCCCC1C` (stereo unspecified) showed an RP-LC retention time of 836 s.
Consider `Cc1sc(NC(=O)c2ccc(S(=O)(=O)N(C)C)cc2)nc1-c1ccc2c(c1)NC(=O)CO2`, for which the RP-LC retention time was 842 s.
For the compound `O=C(c1ccc(Br)o1)N1CCN(c2ccc(NCc3ccccc3)nn2)CC1`, the RP-LC retention time is 668 s.
As for `CC(=O)N1CCc2cc(N3CC(C(=O)Nc4ccc(Br)cc4)CC3=O)ccc21` (stereo unspecified), the RP-LC retention time was determined as 770 s.
Regarding `CCOc1ccccc1NC(=O)N1CCC2(CC1)NC(=O)c1cc(C)ccc1N2C`, the RP-LC retention time was determined as 872 s.
To `Cc1cc(S(=O)(=O)N2CCC(C(N)=O)CC2)ccc1F` belongs 649 s.
As for `Cc1noc(C)c1S(=O)(=O)N1CCC(C(C)C(=O)N2CCN(C3CCCCC3)CC2)CC1` (stereo unspecified), the RP-LC retention time was 654 s.
To `CC(C(=O)O)c1ccc2c(c1)Cc1cccnc1O2` (stereo unspecified) belongs 797 s; to `COc1ccc(OC)c(NC(=O)C(C)C2CCN(C(=O)Nc3ccc(C)cc3)CC2)c1` (stereo unspecified), 908 s; to `CCN1C(=O)SC(CC(=O)O)C1=O` (stereo unspecified), 948 s.
For the compound `CCOC(=O)c1nc(N2CCC(Cc3ccccc3)CC2)c2ccccc2n1`, the RP-LC retention time was 979 s.
Turning to `O=C(CNC(=O)C1CCCCC1)Nc1nc2ccccc2[nH]1`, the RP-LC retention time came to 619 s.
`COc1ccc(Nc2c(-c3ccc(SC)cc3)nc3cnc(Br)cn23)cc1OC` showed an RP-LC retention time of 934 s.
In turn, `Cc1ccc(C)c(C(=O)CCC(=O)O)c1` showed an RP-LC retention time of 818 s.
In the case of `CCn1nccc1-c1cccc(-c2noc(C3(c4ccc(OC)cc4)CC3)n2)c1`, the RP-LC retention time turned out to be 1240 s.
`COCCCNC(=O)Cn1c(=O)n(-c2ccccc2)c2ncccc21`: the RP-LC retention time was determined as 650 s.
Compound `O=S(=O)(c1ccc(Cl)cc1)c1ccc(N2CCN(c3ccccn3)CC2)nn1` came in with an RP-LC retention time of 651 s.
Turning to `COc1ccc(Cl)cc1S(=O)(=O)Nc1cccn2c(C3CCC3)nnc12`, the RP-LC retention time is 849 s.
`COc1ccc(NC(=O)C2CCN(c3cncnc3N(C)C)CC2)cc1OC` had an RP-LC retention time of 592 s.
`CC1(C)CC(=O)c2c(O)cc(OCC(=O)O)cc2O1` yielded an RP-LC retention time of 738 s.
`CCOC(=O)N1CCN(C(=S)Nc2ccc3nc(N4CCN(C)CC4)cc(C)c3c2)CC1` had an RP-LC retention time of 540 s.
Compound `Cc1ccc(C2Cn3nnc(C(=O)NC4CCCCC4)c3CO2)cc1` (stereo unspecified) displayed an RP-LC retention time of 1050 s.
To `O=C(Cc1nnc(-c2ccc3ncccc3c2)o1)Nc1ccc(C(F)(F)F)cc1` belongs 827 s; to `Cc1noc(-c2cccn2Cc2cccc(F)c2)n1`, 962 s.
`CCOC(=O)c1cccc(N2C=C(C#N)S(=O)(=O)c3ccc(C)cc32)c1` registered an RP-LC retention time of 969 s.
In turn, `CC(C)N(C(=O)Cn1c(CN2CCCCC2)nc2ccccc21)c1ccccc1` returned an RP-LC retention time of 738 s.
`O=C(Cc1cccs1)NCCS(=O)(=O)N1CCc2ccccc2C1` showed an RP-LC retention time of 764 s.
On to `O=C(CN1CCC(c2nc(-c3ccc(F)cc3)no2)CC1)NC1CCCCC1`, for which the RP-LC retention time was found to be 715 s.
To `C=C1C[C@H]2[C@@H]3CCC4=CC(=O)CC[C@@H]4[C@H]3CC[C@]2(C)[C@@]1(OC(C)=O)C(C)=O` belongs 1160 s; to `CSc1cccc(NC(=O)C2CCCN(C(=O)c3ccc(Cl)cc3)C2)c1` (stereo unspecified), 973 s.
To `Cc1ccc(C(=O)N2CCCC2COc2ccc(C(=O)NC(C)C)cc2)cc1F` (stereo unspecified) belongs 889 s; to `COCCN1C(=O)c2ccccc2C(C(=O)NCc2ccco2)C1c1ccc(F)cc1` (stereo unspecified), 822 s.
`COc1ccc2[nH]c(=O)c(CCC(=O)NCCCN3CCCC3=O)cc2c1` gave an RP-LC retention time of 592 s.
Regarding `CCOc1ccc(CNC(=O)Cn2cnc3onc(C)c3c2=O)cc1`, the RP-LC retention time was determined as 755 s.
To `Cn1nc(C(=O)NCC2CCOCC2)c2ccccc21` belongs 697 s; to `Cc1ccc(CNC(=O)C2(C)CN(S(C)(=O)=O)CC(=O)N2c2cccc(C)c2C)cc1` (stereo unspecified), 856 s.
Turning to `CC(C)c1cc(C(=O)NC2CCCC2)nc2ccnn12`, the RP-LC retention time was 979 s.
Turning to `Cc1csc(NC(=O)C2CCN(S(=O)(=O)c3ccc4c(c3)sc(=O)n4C)CC2)n1`, the RP-LC retention time is 782 s.
The compound `CC(C)c1ccccc1NC(=O)CN1CCN(c2ccc(Cl)cc2)C1=O` showed an RP-LC retention time of 906 s.
With `CC1=NS(=O)(=O)N(Cc2ccccc2)C=C1C(=O)OCc1cc(C)ccc1C`, the RP-LC retention time came to 1200 s.
On to `Cc1ccc(NC(=O)CSc2nnc(NC(=O)c3cc(C4CC4)on3)s2)cc1Cl`, for which the RP-LC retention time was 926 s.
To `CCc1noc(NC(C)=O)c1-c1ccc(OC)c(S(=O)(=O)Nc2cccc(Cl)c2C)c1` belongs 894 s.
`COc1ncccc1CNC(=O)NCc1ccco1`: the RP-LC retention time amounted to 568 s.
As for `COc1cc2c(cc1OC)C(C1(O)CCCCC1)NCC2` (stereo unspecified), the RP-LC retention time is 660 s.
On to `CCOCCCNC(=O)C1CCCN(c2nc3ccccc3n(Cc3ccc(C)cc3)c2=O)C1` (stereo unspecified), for which the RP-LC retention time worked out at 1080 s.
In turn, `Cc1noc(-c2ccc(NC(=O)COc3ccccc3F)cc2)n1` showed an RP-LC retention time of 832 s.
The compound `O=C1NCCOCCCN(C(=O)Nc2ccccc2)[C@H]2CCCC[C@@H]12` came in with an RP-LC retention time of 672 s.
Regarding `CN(C)CCN(Cc1ccccc1)C(=O)Cn1c(=O)oc2ccccc21`, the RP-LC retention time came out at 645 s.
To `CCOC(=O)c1cnc2nc(C)ccc2c1Nc1ccc(F)c(C#N)c1` belongs 684 s; to `CC(C)OC(=O)Cn1nc(-c2nc(-c3cccc(Cl)c3)no2)ccc1=O`, 1100 s.
With `CN(CC1CCOC1)C(=O)Nc1cc(F)ccc1F` (stereo unspecified), the RP-LC retention time is 704 s.
Compound `Cc1nn(C)c(C)c1CNC(=O)C1CC(=O)N(c2n[nH]c3cccc(F)c23)C1` (stereo unspecified) came in with an RP-LC retention time of 594 s.
To `CC1=C(c2ccc(C)cc2)S(=O)(=O)N=C1N1CCC(NC(=O)c2cc(C)n(C)n2)CC1` belongs 769 s.
In turn, `COc1cccc(C(=O)N2CCN(c3nc4ccccc4n(C)c3=O)CC2)c1` came in with an RP-LC retention time of 877 s.
On to `O=C1NCCCn2cc(S(=O)(=O)N3CCN(c4ccc(F)cc4)CC3)cc21`, for which the RP-LC retention time stood at 730 s.
On to `CC(=O)c1ccc(NC(=O)c2c[nH]c3ncccc23)cc1`, for which the RP-LC retention time was found to be 652 s.
With `CCCn1cc(CCNC(=O)c2cccc(Br)c2)c2cccnc21`, the RP-LC retention time came out at 833 s.
Compound `COc1ccccc1NC(=O)Nc1cc(C(C)C)ccc1C` registered an RP-LC retention time of 1160 s.
Compound `O=S(=O)(Nc1ccccc1)c1cccnc1Nc1ccc(F)cc1` displayed an RP-LC retention time of 1020 s.
In turn, `COc1ccc(NC(=O)Nc2cc(-c3cn4cccnc4n3)ccc2OC)cc1` returned an RP-LC retention time of 651 s.
As for `CS(=O)(=O)Nc1ccc(C2(C(=O)NCc3ccc(F)cc3)CCCCC2)cc1`, the RP-LC retention time is 897 s.
For `CCOc1ccc(S(=O)(=O)N2CCC(C(=O)Nc3ccc(C(N)=O)cc3)CC2)cc1C`, the RP-LC retention time was determined as 782 s.
In turn, `CCOC(=O)C1CCCN(C(=O)c2cn(-c3cc(N4CCSCC4)ncn3)cn2)C1` (stereo unspecified) gave an RP-LC retention time of 802 s.
